Legend:
HeLa = assay: Cytotoxicity against human HeLa cells assessed as reduction in cell viability incubated for 24 hrs by MTT assay
CWR22R = assay: Cytotoxicity against human 22Rv1 cells assessed as reduction in cell viability incubated for 24 hrs by MTT assay; conditions: 22Rv1, 24 h
[1] = biological target: T1, Heat shock protein 75 kDa, mitochondrial (Homo sapiens, UniProt Q12931)
T1 sequence (Q12931 whole entry): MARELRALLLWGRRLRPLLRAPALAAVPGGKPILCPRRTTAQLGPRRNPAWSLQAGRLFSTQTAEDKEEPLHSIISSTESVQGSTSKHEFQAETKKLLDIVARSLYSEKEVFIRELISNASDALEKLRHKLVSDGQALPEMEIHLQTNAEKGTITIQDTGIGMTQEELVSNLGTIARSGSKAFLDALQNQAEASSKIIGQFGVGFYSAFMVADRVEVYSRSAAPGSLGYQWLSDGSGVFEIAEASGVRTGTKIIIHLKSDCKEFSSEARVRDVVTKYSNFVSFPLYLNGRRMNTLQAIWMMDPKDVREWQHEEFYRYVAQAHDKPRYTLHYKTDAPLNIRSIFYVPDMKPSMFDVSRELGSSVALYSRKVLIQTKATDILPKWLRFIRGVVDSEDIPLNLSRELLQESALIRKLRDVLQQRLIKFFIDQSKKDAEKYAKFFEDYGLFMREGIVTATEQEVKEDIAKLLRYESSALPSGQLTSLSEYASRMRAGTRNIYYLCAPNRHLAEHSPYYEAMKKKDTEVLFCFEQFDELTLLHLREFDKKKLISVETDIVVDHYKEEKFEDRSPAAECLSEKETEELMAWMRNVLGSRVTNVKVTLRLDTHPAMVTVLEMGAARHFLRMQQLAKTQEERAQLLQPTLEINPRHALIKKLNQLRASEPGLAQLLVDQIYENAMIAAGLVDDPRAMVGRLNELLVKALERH

[2] = biological target: T1, Heat shock protein 75 kDa, mitochondrial; assay: Binding affinity to TRAP1 (unknown origin) assessed as dissociation constant incubated for 15 mins by MST analysis
[3] = biological target: Heat shock protein 75 kDa, mitochondrial (Homo sapiens, UniProt Q12931, F353A/F531A)
Sequence of Heat shock protein 75 kDa, mitochondrial (Homo sapiens, UniProt Q12931, F353A/F531A) (Q12931 60-704 F353A/F531A limits assumed): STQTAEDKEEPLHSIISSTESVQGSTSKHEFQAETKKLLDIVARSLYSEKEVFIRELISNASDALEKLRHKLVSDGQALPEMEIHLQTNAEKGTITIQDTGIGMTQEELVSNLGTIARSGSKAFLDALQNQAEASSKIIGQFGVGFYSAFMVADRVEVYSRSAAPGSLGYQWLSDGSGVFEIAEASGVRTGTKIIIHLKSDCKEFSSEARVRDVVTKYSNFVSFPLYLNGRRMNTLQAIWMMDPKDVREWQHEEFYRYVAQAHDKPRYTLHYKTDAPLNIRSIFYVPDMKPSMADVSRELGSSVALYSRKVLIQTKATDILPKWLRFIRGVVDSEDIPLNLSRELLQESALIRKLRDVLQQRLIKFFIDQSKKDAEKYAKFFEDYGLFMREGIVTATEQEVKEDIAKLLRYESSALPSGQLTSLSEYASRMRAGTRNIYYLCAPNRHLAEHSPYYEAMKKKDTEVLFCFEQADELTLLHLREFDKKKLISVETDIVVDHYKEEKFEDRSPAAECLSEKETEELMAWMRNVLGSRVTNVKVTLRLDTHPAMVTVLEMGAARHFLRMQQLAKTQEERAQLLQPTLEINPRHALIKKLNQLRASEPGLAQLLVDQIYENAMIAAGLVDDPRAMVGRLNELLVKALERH

[4] = biological target: T1, Heat shock protein 75 kDa, mitochondrial; remark: listed apart in the source
Description: Binding affinity to N-terminal 6Hits-tagged/TEV-fused human wildtype TRAP1 extracted from Escherichia coli BL21 (DE3) cells assessed as dissociation constant incubated for 2 hrs by fluorescence polarization assay

[5] = biological target: T1, Heat shock protein 75 kDa, mitochondrial; assay: Binding affinity to TRAP1 (unknown origin) assessed as dissociation constant by MST analysis

| Structure (SMILES) | IC50 (HeLa) [µM] | IC50 (CWR22R) [µM] | IC50 [1] [µM] | Kd [2] [µM] | Kd [3] [µM] | Kd [4] [µM] | Kd [5] [µM] |
| --- | --- | --- | --- | --- | --- | --- | --- |
| O=C(CCCCCCCCC[P+](c1ccccc1)(c1ccccc1)c1ccccc1)Oc1ccc(-c2cc(=S)ss2)cc1 | > 20 | > 20 | 8.94 | – | – | – | – |
| COc1cc(C)c(CCCCCCCCCC[P+](c2ccccc2)(c2ccccc2)c2ccccc2)cc1OC | 3.21 | 0.502 | 3.8 | – | – | – | – |
| O=C(C/C(=C/c1ccccc1)C[P+](c1ccccc1)(c1ccccc1)c1ccccc1)C/C(=C\c1ccccc1)C[P+](c1ccccc1)(c1ccccc1)c1ccccc1 | > 20 | 17.4 | > 20 | – | – | – | – |
| Cc1c(C)c2c(c(C)c1O)CCC(C)(CCCCCCCCCC[P+](c1ccccc1)(c1ccccc1)c1ccccc1)O2 (stereo not given) | 1.45 | 0.183 | 8.42 | – | – | – | – |
| COc1cc(COC(=O)CCCCC[P+](c2ccccc2)(c2ccccc2)c2ccccc2)c(OC)c2c1OCO2 | > 20 | 18.3 | > 20 | – | – | – | – |
| c1ccc([P+](Cc2c3ccccc3c(C[P+](c3ccccc3)(c3ccccc3)c3ccccc3)c3ccccc23)(c2ccccc2)c2ccccc2)cc1 | > 20 | > 20 | 9.96 | – | – | – | – |
| Cc1c(C)c2c(c(C)c1O)CCC(C)(CC[P+](c1ccccc1)(c1ccccc1)c1ccccc1)O2 (stereo not given) | > 20 | 17.4 | > 20 | – | – | – | – |
| O=C(c1ccccc1)C(O)(CCC[P+](c1ccccc1)(c1ccccc1)c1ccccc1)c1ccccc1 (stereo not given) | 17.6 | 3.49 | > 20 | – | – | – | – |
| CN(C)CCOc1ccc(/C(=C(/CCCCCCCCCC[P+](c2ccccc2)(c2ccccc2)c2ccccc2)c2ccccc2)c2ccccc2)cc1 | 0.94 | 0.62 | 2.53 | 4.41 | 28 | – | – |
| CN(CCCCCC[P+](c1ccccc1)(c1ccccc1)c1ccccc1)C(=O)c1ccccc1C1=c2cc3c4c(c2Oc2c1cc1c5c2CCCN5CCC1)CCC[N+]=4CCC3 | – | – | – | – | – | 1.52 | – |
| COc1c(C)c(CCCCCCCCCC[P+](c2ccccc2)(c2ccccc2)c2ccccc2)c(OC)c(OC)c1OC | 1.65 | 0.385 | 3.77 | – | – | – | – |
| CC1(C)CC(C(=O)OCCCCCCCCCC[P+](c2ccccc2)(c2ccccc2)c2ccccc2)C(C)(C)N1O (stereo not given) | 5.15 | 0.601 | 4.75 | – | – | – | – |
| CCN(CC)c1ccc2c(-c3ccccc3C(=O)N(C)CCCCCC[P+](c3ccccc3)(c3ccccc3)c3ccccc3)c3ccc(=[N+](CC)CC)cc-3oc2c1 | – | – | – | – | – | 0.81 | – |
| COC1=C(OC)C(=O)C(C[P+](c2ccccc2)(c2ccccc2)c2ccccc2)=C(C)C1=O | > 20 | 16.3 | > 20 | – | – | – | – |
| CCN(CC)c1ccc2c(-c3ccccc3C(=O)N(C)CCCCCCCC[P+](c3ccccc3)(c3ccccc3)c3ccccc3)c3ccc(=[N+](CC)CC)cc-3oc2c1 | – | – | – | – | – | 2.19 | – |
| CC1(C)CC(C(=O)OCC[P+](c2ccccc2)(c2ccccc2)c2ccccc2)C(C)(C)N1O (stereo not given) | > 20 | > 20 | > 20 | – | – | – | – |
| COc1c(Br)c(C)c(CCCCCCCCCC[P+](c2ccccc2)(c2ccccc2)c2ccccc2)c(OC)c1OC | 1.61 | 0.37 | 4.07 | – | – | – | – |
| O=C(CCCCCCCCCC[P+](c1ccccc1)(c1ccccc1)c1ccccc1)Nc1nccs1 | 6.38 | 2.25 | 14.1 | – | – | – | – |
| CC(C)(C)[Si](C)(C)O[C@H]1CC[C@]2(C)[C@H]1[C@H]2CCC[P+](c1ccccc1)(c1ccccc1)c1ccccc1 | 1.67 | 0.86 | 8.05 | – | – | – | – |
| CN(CCCCCCCC[P+](c1ccccc1)(c1ccccc1)c1ccccc1)C(=O)c1ccccc1C1=c2cc3c4c(c2Oc2c1cc1c5c2CCCN5CCC1)CCC[N+]=4CCC3 | – | – | – | 0.37 | 5.21 | 0.27 | – |
| COC1=C(OC)C(=O)C(CCCCCCCCCC[P+](c2ccccc2)(c2ccccc2)c2ccccc2)=C(C)C1=O [MITOQUINONE CATION] | 4.3 | 0.597 | 5.2 | – | – | – | 6.6 |

Source: ChEMBL document CHEMBL6083281, “Development of a Fluorescence Probe for High-Throughput Screening of Allosteric Inhibitors Targeting TRAP1” (J Med Chem, 2024)
